# Data taken from patent US20240308995A1, “O-GLYCOPROTEIN-2-ACETAMIDO-2-DEOXY-3-D-GLUCOPYRANOSIDASE INHIBITORS” (BIOGEN MA INC., priority 2018, published 2024).
# Read-outs that look alike come from different tables or passages of the source. Marks after values point to notes of the source that are not given here.
# Assays:
# [1] = target: Recombinant full length human OGA enzyme (Homo sapiens (Human), UniProt O60502); assay: OGA Enzyme Inhibition Biochemical Assay; conditions: 1 nM OGA, 100 μM 4-MUGlcNAc, pH 6.4
# Sequence of Recombinant full length human OGA enzyme (O60502 whole entry): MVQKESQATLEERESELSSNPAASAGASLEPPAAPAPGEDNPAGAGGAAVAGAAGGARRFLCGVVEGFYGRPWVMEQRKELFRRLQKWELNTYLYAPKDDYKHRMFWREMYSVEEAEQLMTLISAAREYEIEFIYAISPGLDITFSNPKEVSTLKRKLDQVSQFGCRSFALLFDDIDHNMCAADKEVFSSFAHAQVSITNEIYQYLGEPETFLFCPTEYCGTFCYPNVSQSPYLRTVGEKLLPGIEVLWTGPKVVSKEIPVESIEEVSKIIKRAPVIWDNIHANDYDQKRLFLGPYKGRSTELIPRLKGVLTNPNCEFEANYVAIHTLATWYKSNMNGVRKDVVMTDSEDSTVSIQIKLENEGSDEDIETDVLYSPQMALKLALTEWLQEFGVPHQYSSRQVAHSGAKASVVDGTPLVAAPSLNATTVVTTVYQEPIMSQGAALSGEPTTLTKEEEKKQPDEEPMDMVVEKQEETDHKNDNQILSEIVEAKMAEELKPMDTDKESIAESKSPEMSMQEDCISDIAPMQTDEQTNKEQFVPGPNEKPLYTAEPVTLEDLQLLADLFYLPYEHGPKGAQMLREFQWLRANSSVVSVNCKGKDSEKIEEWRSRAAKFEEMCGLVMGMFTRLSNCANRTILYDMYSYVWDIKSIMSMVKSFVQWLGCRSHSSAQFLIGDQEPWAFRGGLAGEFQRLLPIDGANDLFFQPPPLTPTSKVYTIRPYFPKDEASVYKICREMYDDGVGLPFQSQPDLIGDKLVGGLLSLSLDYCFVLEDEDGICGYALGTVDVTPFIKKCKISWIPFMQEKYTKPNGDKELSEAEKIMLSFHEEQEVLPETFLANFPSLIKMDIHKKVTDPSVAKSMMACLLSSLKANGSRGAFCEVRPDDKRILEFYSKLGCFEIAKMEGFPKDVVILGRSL
# Protocol: Recombinant full length human OGA enzyme was purchased from Origene. 4-MUGlcNAc substrate was purchased from Sigma. All other reagents were purchased from Sigma or Fisher. Assay buffer consists of the McIlvaine buffer system, pH 6.4 (0.2M Na2HPO4 mixed with 0.1M citric acid) and 0.01% BSA. […] Reactions were incubated for 90 minutes at room temperature and quenched with 40 μl of 3M glycine, pH 10 and read on a Perkin Elmer Envision plate reader (Ex: 355 nm/Em: 460 nm). Compounds were tested with a 10-point dose-response starting from 20 μM with a 4-fold dilution. Data was fit using GraphPad Prism using a 4-parameter fit with variable slope.
# [2] = target: OGA (S400 O-GLCNAC), HEK-293T cells transfected with Tau-V5 (Homo sapiens (Human), UniProt O60502); assay: Cellular OGA-Tau MSD Assay; type: cell-based
# Sequence of OGA (S400 O-GLCNAC), HEK-293T cells transfected with Tau-V5 (O60502 whole entry): as above
# Protocol: HEK-293T cells were transfected with […] and Tau-V5 plasmids using Lipofectamine and grown overnight. Next day, the cells were collected and re-plated at 1×10^5 cells per well in 96 well plates. Cells were incubated for 4 hr at 37° C., before compounds were added at 1 uM, with 3-fold dilutions in a 10-point titration. Cell plates were incubated with compounds overnight at 37° C. The next day media was removed from wells by gentle aspiration and 120 ul of 1× Cell Lysis buffer mixed with protease and phosphatase cocktail added to each well. A freeze thaw was performed at -80° C., then mixed before transferring 50 ul to MSD plates coated with V5-tag antibody to capture Tau. MSD Plates were incubated overnight at 4° C., on a plate shaker. The following day, plates were washed and incubated with Tau-[…]-GlcNAc antibody for 2 hr and then developed with rabbit Sulfo-tag antibody. Final read out was carried out on an MSD 600 reader. The data was analyzed using Graph Pad or Genedata, the data was normalized and % activity versus log of compound concentration was plotted. The IC50 values were obtained from a 4 parameter fit.
# P-gp (MDR1) = assay: MDR1-MDCK Efflux Ratio Assay; type: in vitro ADME; conditions: dog, read-out: MDR1-MDCK Efflux Ratio (B-A/A-B)
# Protocol: MDR1-MDCK cell monolayers were grown to confluence on microporous polyester membranes in 96-well Corning insert plates. The permeability assay buffer was Hanks' Balanced Salt Solution containing 10 mM HEPES at pH of 7.4. Loperamide (1 μM) was used as a positive control P-gp substrate. Propranolol and Bestatin (1 μM) were used as high and low permeability comparators, respectively. Test compounds or positive control P-gp substrate/permeability comprators were added to respective apical and basolateral chambers for bidirectional assessment of permeability. Receiver buffer (transport buffer supplemented with 1% bovine serum albumin) was added to respective receiver chambers. MDR1-MDCK cells were incubated with test compounds at 37° C. with 5% CO2 for 2 hr. Samples were collected from the donor chamber at both 0 and 120 minutes, and from the receiver chamber at 120 minutes. Test and control compound concentrations were determined using LC-MS/MS analysis. Each determination was performed in triplicate. The apparent permeability (Papp), efflux ratio and mass balance (percent recovery) were calculated as follows: [formula] where: dCr/dt is the cumulative concentration in the receiver compartment versus time in μM s^−1 Vr is the volume of the receiver compartment in cm^3 Vd is the volume of the donor compartment in cm^3 A is the area of the insert (0.143 cm^2 for 96-well insert) CE is the estimated experimental concentration (Time=0) of the dosing solution Cr^final is the concentration of the receiver at the end of the incubation period Cd^final is the concentration of the donor at the end of the incubation period.
# [3] = Rat Liver Microsome Stability Assay; type: in vitro ADME
# [4] = HEK-293T cells, Tau-S400-GlcNAc MSD readout
# [5] = MDCK-MDR1, pH 7.4, MDR1-MDCK cells, 2 hr, pH 7.4
# [6] = rat liver microsomes, 1 uM compound
# [7] = repeated assay, value marked with asterisk (*)
# [8] = MDCK-MDR1, pH 7.4, repeated assay, value marked with asterisk (*)
SMILES,IC50 [1],"IC50 [2, 4]",efflux ratio at 2 h (P-gp (MDR1); [5]),"RLM % Qh (%) [3, 6]","IC50 [2, 7]",efflux ratio at 2 h (P-gp (MDR1); [8]),"RLM % Qh (%) [3, 7]"
"CC(=O)Nc1ncc(CN2CCC[C@@H](Oc3ccc(F)cn3)C2)s1 [Example 1-3, (R)—N-(5-((3-((5-fluoropyridin-2-yl)oxy)piperidin-1-yl)methyl)thiazol-2-yl)acetamide]",140 nM,38 nM,2.3,82%,,2.2,
"CC(=O)Nc1ncc(CN2C[C@H](Oc3cc(C)nc(C)c3)C[C@H]2C)s1 [Example 1-61, N-(5-(((2R,4R)-4-((2,6-dimethylpyridin-4-yl)oxy)-2-methylpyrrolidin-1-yl)methyl)thiazol-2-yl)acetamide]",7 nM,39 nM,45.2,31%,,,
"COc1cc(O[C@@H]2CCCN(Cc3cnc(NC(C)=O)s3)C2)ncn1 [Example 1-42, (R)—N-(5-((3-((6-methoxypyrimidin-4-yl)oxy)piperidin-1-yl)methyl)thiazol-2-yl)acetamide]",39 nM,81 nM,3.9,61%,,,
"CC(=O)Nc1ncc(CN2C[C@H](Oc3ncc(C)nc3C)C[C@@H]2C)s1 [Example 1-81, N-(5-(((2S,4R)-4-((3,5-dimethylpyrazin-2-yl)oxy)-2-methylpyrrolidin-1-yl)methyl)thiazol-2-yl)acetamide]",8.4 nM,,7.3,74%,,,
"CC(=O)Nc1nc(F)c(CN2C[C@H](Oc3ncc(C)nc3C)C[C@@H]2C)s1 [Example 1-106, N-(5-(((2S,4R)-4-((3,5-dimethylpyrazin-2-yl)oxy)-2-methylpyrrolidin-1-yl)methyl)-4-fluorothiazol-2-yl)acetamide]",2.4 nM,,4.6,86%,,,
"COc1cc(O[C@@H]2CCN(Cc3cnc(NC(C)=O)s3)C2)ncn1 [Example 1-37, (R)—N-(5-((3-((6-methoxypyrimidin-4-yl)oxy)pyrrolidin-1-yl)methyl)thiazol-2-yl)acetamide]",36 nM,27 nM,,,,,
"CC(=O)Nc1nc(F)c(CN2C[C@H](Oc3cc(C)ncc3C)C[C@@H]2C)s1 [Example 1-107, N-(5-(((2S,4R)-4-((2,5-dimethylpyridin-4-yl)oxy)-2-methylpyrrolidin-1-yl)methyl)-4-fluorothiazol-2-yl)acetamide]",1.7 nM,,17.2,58%,,,
"CC(=O)Nc1ncc(CN2C[C@H](Oc3cc(OC4CN(C)C4)ncn3)C[C@@H]2C)s1 [Example 1-125, N-(5-(((2S,4R)-2-methyl-4-((6-((1-methylazetidin-3-yl)oxy)pyrimidin-4-yl)oxy)pyrrolidin-1-yl)methyl)thiazol-2-yl)acetamide]",1.4 nM,,1,54%,,,
"[2H][C@]1(Oc2cc(OC)ncn2)C[C@H](C)N(Cc2sc(NC(C)=O)nc2F)C1 [Example 1-166, N-(4-fluoro-5-(((2S,4S)-4-((6-methoxypyrimidin-4-yl)oxy)-2-methylpyrrolidin-1-yl-4-d)methyl)thiazol-2-yl)acetamide]",13 nM,11 nM,,,,,
"CNc1cc(O[C@@H]2C[C@H](C)N(Cc3cnc(NC(C)=O)s3)C2)ncn1 [Example 1-137, N-(5-(((2S,4R)-2-methyl-4-((6-(methylamino)pyrimidin-4-yl)oxy)pyrrolidin-1-yl)methyl)thiazol-2-yl)acetamide]",< 1 nM,2 nM,,,,,
"CC(=O)Nc1ncc(CN2C[C@@H](Oc3cc(C)nc(C)c3)CC[C@@H]2C)s1 [Example 1-66, N-(5-(((2S,5S)-5-((2,6-dimethylpyridin-4-yl)oxy)-2-methylpiperidin-1-yl)methyl)thiazol-2-yl)acetamide]",< 1 nM,4 nM,,,,,
"CC(=O)Nc1nc(F)c(CN2C[C@H](Oc3ccc(F)nn3)C[C@@H]2C)s1 [Example 1-111, N-(4-fluoro-5-(((2S,4R)-4-((6-fluoropyridazin-3-yl)oxy)-2-methylpyrrolidin-1-yl)methyl)thiazol-2-yl)acetamide]",< 1 nM,1 nM,,,,,

# Second part, the molecule after the results:
IC50 [1],"IC50 [2, 4]",efflux ratio at 2 h (P-gp (MDR1); [5]),"RLM % Qh (%) [3, 6]","IC50 [2, 7]",efflux ratio at 2 h (P-gp (MDR1); [8]),"RLM % Qh (%) [3, 7]",SMILES
< 1 nM,< 1 nM,9.9,81%,,,,"COc1ccnc(O[C@@H]2C[C@H](C)N(Cc3sc(NC(C)=O)nc3F)C2)n1 [Example 1-91, N-(4-fluoro-5-(((2S,4R)-4-((4-methoxypyrimidin-2-yl)oxy)-2-methylpyrrolidin-1-yl)methyl)thiazol-2-yl)acetamide]"
< 1 nM,2 nM,1.9,69%,,,,"COc1ccc(O[C@@H]2C[C@H](C)N(Cc3sc(NC(C)=O)nc3F)C2)cn1 [Example 1-114, N-(4-fluoro-5-(((2S,4R)-4-((6-methoxypyridin-3-yl)oxy)-2-methylpyrrolidin-1-yl)methyl)thiazol-2-yl)acetamide]"
< 1 nM,3 nM,10,97%,2 nM,8.9,98* %,"COc1cncc(O[C@@H]2C[C@H](C)N(Cc3cnc(NC(C)=O)s3)C2)n1 [Example 1-12, N-(5-(((2S,4R)-4-((6-methoxypyrazin-2-yl)oxy)-2-methylpyrrolidin-1-yl)methyl)thiazol-2-yl)acetamide]"
< 1 nM,3 nM,26.4,93%,,,,"CC(=O)Nc1nc(F)c(CN2C[C@H](Oc3cc(C)nc(C)c3)CC[C@@H]2C)s1 [Example 1-57, N-(5-(((2S,5R)-5-((2,6-dimethylpyridin-4-yl)oxy)-2-methylpiperidin-1-yl)methyl)-4-fluorothiazol-2-yl)acetamide]"
< 1 nM,1 nM,23.6,43%,,,,"CC(=O)Nc1ncc(CN2C[C@H](Oc3cc(N4CCC4)ncn3)C[C@@H]2C)s1 [Example 1-133, N-(5-(((2S,4R)-4-((6-(azetidin-1-yl)pyrimidin-4-yl)oxy)-2-methylpyrrolidin-1-yl)methyl)thiazol-2-yl)acetamide]"
< 1 nM,10 nM,,58%,,,,CC(=O)Nc1ncc(CN2C[C@H](Oc3cc(OCC(F)(F)F)ncn3)C[C@@H]2C)s1 [Example 1-77]
< 1 nM,7 nM,3.8,,8 nM,,,"CC(=O)Nc1ncc(CN2C[C@H](Oc3cc(Cl)ncn3)C[C@@H]2C)s1 [Example 1-21, N-(5-(((2S,4R)-4-((6-chloropyrimidin-4-yl)oxy)-2-methylpyrrolidin-1-yl)methyl)thiazol-2-yl)acetamide]"
< 1 nM,,21.8,91%,,,,"CC(=O)Nc1nc(F)c(CN2C[C@@H](Oc3cc(C)nc(C)c3)CC[C@@H]2C)s1 [Example 1-56, N-(5-(((2S,5S)-5-((2,6-dimethylpyridin-4-yl)oxy)-2-methylpiperidin-1-yl)methyl)-4-fluorothiazol-2-yl)acetamide]"
< 1 nM,1 nM,,,,,,"COc1cc(O[C@@H]2C[C@H](C)N(Cc3sc(NC(C)=O)nc3F)C2)ccn1 [Example 1-100, N-(4-fluoro-5-(((2S,4R)-4-((2-methoxypyridin-4-yl)oxy)-2-methylpyrrolidin-1-yl)methyl)thiazol-2-yl)acetamide]"
